Patent publication US10723699B2 (Hyundai Pharm Co., Ltd., priority 2015, dated 2020)
Where two headings read alike, the source gives them in different places.

Molecular target: T1, G protein-coupled receptor 119 (GPR-119) (Mesocricetus auratus, UniProt A0A1U8CD06)
T1 construct: hamster-derived β-cells containing G protein-coupled receptor 119 (GPR-119), HIT-T15 cells; host or cells: HIT-T15 (hamster pancreatic β-cells)
T1 sequence (A0A1U8CD06 1-334): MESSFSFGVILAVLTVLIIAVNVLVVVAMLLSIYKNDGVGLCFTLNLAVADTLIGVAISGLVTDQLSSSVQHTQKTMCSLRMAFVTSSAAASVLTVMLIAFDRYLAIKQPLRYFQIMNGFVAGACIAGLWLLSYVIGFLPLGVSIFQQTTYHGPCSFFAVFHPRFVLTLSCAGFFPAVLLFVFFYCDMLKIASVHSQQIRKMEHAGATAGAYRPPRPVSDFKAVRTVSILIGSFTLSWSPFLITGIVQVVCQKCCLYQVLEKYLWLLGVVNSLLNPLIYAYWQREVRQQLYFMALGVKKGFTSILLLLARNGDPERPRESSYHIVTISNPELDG
Assay: cAMP activity in HIT-T15 cells (cAMP dynamic kit, FRET)
Format: cell-based, hamster
Method in brief: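 Hamster HIT-T15 cells (60,000/well) were treated next day with compound at six concentrations, 0.0032–10 μM, for 1 h at 37° C. Cells were then lysed and cAMP measured by competitive HTRF immunoassay (D2-cAMP, cryptate anti-cAMP). Activity was derived as the change in FRET signal relative to DMSO.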

[1] = 1 hour at 37° C., six concentrations 0.0032 to 10 μM, read-out: EC50

SMILES	EC50 (EC50 (nM), 1 hour at 37° C., six concentrations 0.0032 to 10 μM)	EC50 (EC50 value, Table 2)	EC50 [1]	EC50 (Table 2, read-out: EC50 value)
CCc1cnc(N2CCC(COc3ccc(C4=CCC(C(=O)N5CCC(=O)CC5)CC4)cc3F)CC2)nc1 (centres unmarked) [Example 308, 1-(4-(4-((1-(5-ethylpyrimidin-2-yl)piperidin-4-yl)methoxy)-3-fluorophenyl)cyclohex-3-enecarbonyl)piperidin-4-one]	23 nM	≤ 50 nM	–	–
CCc1cnc(N2CCC(COc3ccc(C4=CCC(C(=O)N5CCC5)CC4)cc3F)CC2)nc1 (centres unmarked) [Example 301, azetidin-1-yl(4-(4-((1-(5-ethylpyrimidin-2-yl)piperidin-4-yl)methoxy)-3-fluorophenyl)cyclohex-3-enyl)methanone]	–	–	19 nM	≤ 50 nM
CCc1cnc(N2CCC(COc3ccc(C4=CCC(C(=O)NCC(C)(C)CO)CC4)cc3F)CC2)nc1 (centres unmarked) [Example 378, 4-(4-((1-(5-ethylpyrimidin-2-yl)piperidin-4-yl)methoxy)-3-fluorophenyl)-N-(3-hydroxy-2,2-dimethylpropyl)cyclohex-3-enecarboxamide]	–	–	20 nM	≤ 50 nM
CCc1cnc(N2CCC(COc3ccc(C4=CCC(C(=O)N5C/C(=N\OC)C(CO)(CO)C5)CC4)cc3)CC2)nc1 (centres unmarked) [Example 253, (Z)-(3,3-bis(hydroxymethyl)-4-(methoxyimino)pyrrolidin-1-yl)(4-(4-((1-(5-ethylpyrimidin-2-yl)piperidin-4-yl)methoxy)phenyl)cyclohex-3-enyl)methanone]	–	–	–	≤ 50 nM
CCc1cnc(N2CCC(COc3ccc(C4=CCC(C(=O)N5CCC[C@H]5CO)CC4)cc3)CC2)nc1 (single isomer, unassigned; (-)) [Example 465]	–	–	110 nM	–
CC(C)c1noc(N2CCC(COc3ccc(C4=CCC(C(=O)N5CCC(N6CCCCC6)CC5)CC4)cc3F)CC2)n1 (centres unmarked) [Example 362, 1,4′-bipiperidin-1′-yl(4-(3-fluoro-4-((1-(3-isopropyl-1,2,4-oxadiazol-5-yl)piperidin-4-yl)methoxy)phenyl)cyclohex-3-enyl)methanone]	–	–	180 nM	–
Cn1nnnc1N1CCC(COc2ccc(C3=CCC(C(=O)N4CCCC4)CC3)cc2F)CC1 (centres unmarked) [Example 420, (4-(3-fluoro-4-((1-(1-methyl-1H-tetrazol-5-yl)piperidin-4-yl)methoxy)phenyl)cyclohex-3-enyl)(pyrrolidin-1-yl)methanone]	–	–	110 nM	–
CCc1cnc(N2CCC(COc3ccc(C4=CCC(C(=O)N5CC(O)C5)CC4)cc3F)CC2)nc1 (centres unmarked) [Example 309, (4-(4-((1-(5-ethylpyrimidin-2-yl)piperidin-4-yl)methoxy)-3-fluorophenyl)cyclohex-3-enyl)(3-hydroxyazetidin-1-yl)methanone]	–	–	11 nM	≤ 50 nM
O=C(Oc1ccccc1)N1CCC(COc2ccc(C3=CCC(C(=O)N4CCCC4)CC3)cc2F)CC1 (centres unmarked) [Example 403, phenyl 4-((2-fluoro-4-(4-(pyrrolidine-1-carbonyl)cyclohex-1-enyl)phenoxy)methyl)piperidine-1-carboxylate]	–	–	22 nM	≤ 50 nM
CCc1cnc(N2CCC(COc3ccc(C4=CCC(C(=O)N5CCC(F)(F)CC5)CC4)cc3F)CC2)nc1 (centres unmarked) [Example 457, (4,4-difluoropiperidin-1-yl)(4-(4-((1-(5-ethylpyrimidin-2-yl)piperidin-4-yl)methoxy)-3-fluorophenyl)cyclohex-3-enyl)methanone]	–	–	9.8 nM	≤ 50 nM
CC(C)c1noc(N2CCC(COc3ccc(C4=CCC(C(=O)N5CCCC5)CC4)cc3F)CC2)n1 (centres unmarked) [Example 331, (4-(3-fluoro-4-((1-(3-isopropyl-1,2,4-oxadiazol-5-yl)piperidin-4-yl)methoxy)phenyl)cyclohex-3-enyl)(pyrrolidin-1-yl)methanone]	–	–	11 nM	≤ 50 nM
CCc1cnc(N2CCC(COc3ccc(C4=CCC(C(=O)N5CCCC5)CC4)cn3)CC2)nc1 (centres unmarked) [Example 349, (4-(6-((1-(5-ethylpyrimidin-2-yl)piperidin-4-yl)methoxy)pyridin-3-yl)cyclohex-3-enyl)(pyrrolidin-1-yl)methanone]	–	–	27 nM	≤ 50 nM
CN(CCO)C(=O)C1CC=C(c2ccc(OCC3CCN(C(=O)OC(C)(C)C)CC3)cn2)CC1 (centres unmarked) [Example 341, tert-butyl 4-((6-(4-((2-hydroxyethyl)(methyl)carbamoyl)cyclohex-1-enyl)pyridin-3-yloxy)methyl)piperidine-1-carboxylate]	–	–	180 nM	–
CCc1cnc(N2CCC(COc3ccc(C4=CCC(C(=O)N5CC=CC5)CC4)cc3)CC2)nc1 (centres unmarked) [Example 235, (2,5-dihydro-1H-pyrrol-1-yl)(4-(4-((1-(5-ethylpyrimidin-2-yl)piperidin-4-yl)methoxy)phenyl)cyclohex-3-enyl)methanone]	–	–	–	≤ 50 nM
CCc1cnc(N2CCC(COc3ccc(C4=CCC(C(=O)N5CCOCC5)CC4)c(F)c3)CC2)nc1 (centres unmarked) [Example 422, (4-(4-((1-(5-ethylpyrimidin-2-yl)piperidin-4-yl)methoxy)-2-fluorophenyl)cyclohex-3-enyl)(morpholino)methanone]	–	–	18 nM	≤ 50 nM
CC(C)(C)OC(=O)N1CCC(COc2ccc(C3=CCC(C(=O)N4CCC5(C=Cc6ccccc65)CC4)CC3)cc2)CC1 (centres unmarked) [Example 264, tert-butyl 4-((4-(4-(spiro[indene-1,4′-piperidin]-1′-ylcarbonyl)cyclohex-1-enyl)phenoxy)methyl)piperidine-1-carboxylate]	–	–	–	≤ 50 nM
CC(C)c1noc(N2CCC(COc3ccc(C4=CCC(C(=O)N5CCC5)CC4)cn3)CC2)n1 (centres unmarked) [Example 339, azetidin-1-yl(4-(6-((1-(3-isopropyl-1,2,4-oxadiazol-5-yl)piperidin-4-yl)methoxy)pyridin-3-yl)cyclohex-3-enyl)methanone]	–	–	120 nM	–
CCc1cnc(N2CCC(COc3ccc(C4=CCC(C(=O)N5CCC(C(F)(F)F)CC5)CC4)cc3F)CC2)nc1 (centres unmarked) [Example 456, (4-(4-((1-(5-ethylpyrimidin-2-yl)piperidin-4-yl)methoxy)-3-fluorophenyl)cyclohex-3-enyl)(4-(trifluoromethyl)piperidin-1-yl)methanone]	–	–	18 nM	≤ 50 nM
CC(C)c1noc(N2CCC(COc3ccc(C4=CCC(C(=O)N5CCN(CCCO)CC5)CC4)cc3F)CC2)n1 (centres unmarked) [Example 347, (4-(3-fluoro-4-((1-(3-isopropyl-1,2,4-oxadiazol-5-yl)piperidin-4-yl)methoxy)phenyl)cyclohex-3-enyl)(4-(3-hydroxypropyl)piperazin-1-yl)methanone]	–	–	55 nM	–
CC(C)c1noc(N2CCC(COc3ccc(C4=CCC(C(=O)NCC(C)(C)CO)CC4)cc3F)CC2)n1 (centres unmarked) [Example 371, 4-(3-fluoro-4-((1-(3-isopropyl-1,2,4-oxadiazol-5-yl)piperidin-4-yl)methoxy)phenyl)-N-(3-hydroxy-2,2-dimethylpropyl)cyclohex-3-enecarboxamide]	–	–	39 nM	≤ 50 nM
CCc1cnc(N2CCC(COc3ccc(C4=CCC(C(=O)N5CCCC5)CC4)cc3C(F)(F)F)CC2)nc1 (centres unmarked) [Example 374]	–	–	150 nM	–
CCc1cnc(N2CCC(COc3ccc(C4=CCC(C(=O)N5CCCC5)CC4)cc3F)CC2)nc1 (centres unmarked) [Example 293, (4-(4-((1-(5-ethylpyrimidin-2-yl)piperidin-4-yl)methoxy)-3-fluorophenyl)cyclohex-3-enyl)(pyrrolidin-1-yl)methanone]	–	–	18 nM	≤ 50 nM
CC(C)c1noc(N2CCC(COc3ccc(C4=CCC(C(=O)NC5CCCCC5)CC4)cc3F)CC2)n1 (centres unmarked) [Example 366, N-cyclohexyl-4-(3-fluoro-4-((1-(3-isopropyl-1,2,4-oxadiazol-5-yl)piperidin-4-yl)methoxy)phenyl)cyclohex-3-enecarboxamide]	–	–	39 nM	≤ 50 nM
CCc1cnc(N2CCC(COc3ccc(C4=CCC(C(=O)N5CC[C@H](F)C5)CC4)cc3)CC2)nc1 (single isomer, unassigned; (-)) [Example 458]	–	–	12 nM	–
CCc1cnc(N2CCC(COc3ccc(C4=CCC(C(=O)N5CCC(C(N)=O)CC5)CC4)cc3F)CC2)nc1 (centres unmarked) [Example 324, 1-(4-(4-((1-(5-ethylpyrimidin-2-yl)piperidin-4-yl)methoxy)-3-fluorophenyl)cyclohex-3-enecarbonyl)piperidine-4-carboxamide]	–	–	27 nM	≤ 50 nM
CC(C)(C)OC(=O)N1CCC(COc2ccc(C3=CCC(C(=O)N4CCOCC4)CC3)nc2)CC1 (centres unmarked) [Example 327, tert-butyl 4-((6-(4-(morpholine-4-carbonyl)cyclohex-1-enyl)pyridin-3-yloxy)methyl)piperidine-1-carboxylate]	–	–	80 nM	–
CCc1cnc(N2CCC(COc3ccc(C4=CCC(C(=O)N5CCC(O)CC5)CC4)c(F)c3)CC2)nc1 (centres unmarked) [Example 431, (4-(4-((1-(5-ethylpyrimidin-2-yl)piperidin-4-yl)methoxy)-2-fluorophenyl)cyclohex-3-enyl)(4-hydroxypiperidin-1-yl)methanone]	–	–	27 nM	≤ 50 nM
CCc1cnc(N2CCC(COc3ccc(C4=CCC(C(=O)NCCO)CC4)cc3F)CC2)nc1 (single isomer, unassigned; (-)) [Example 441, (−)-4-(4-((1-(5-ethylpyrimidin-2-yl)piperidin-4-yl)methoxy)-3-fluorophenyl)-N-(2-hydroxyethyl)cyclohex-3-enecarboxamide]	–	–	33 nM	≤ 50 nM
